Assay [1] deals with human endothelial cells of the umbilical vein. The assay is described as follows: Proliferation of human umbilical vein endothelial cells, with or without FGFa. The format is cell-based. The protocol:
At confluence (5-7 days), the cells are detached by an EDTA-trypsin mixture.
48 hours latter, growth factor is added again. After 4 days of culture, the cells are detached by the EDTA-trypsin mixture and the cells are counted by means of a cell counter (Coulter Counter ® Coultronics). Each experimental curve (FIG. 14A-D) represents a typical experiment conducted in triplicate. Each experiment is repeated 2 to 3 times.

Assay [2] concerns LE II cells (endothelial cells of mouse lung). As to the kind of experiment: Tritiated thymidine incorporation in quiescent LE II cells, with or without anionic FGF. The assay is classed as cell-based. The protocol:
LE II cells (endothelial cells of mouse lung) are cultivated on plates containing 24 wells in the presence of 10% foetal calf serum until 3/4 of confluence is attained.
The cells are then maintained for 48 hours in only 0.2% serum and rendered quiescent.
The growth medium is then supplemented with either fibroblast growth factor (FGF) or the oligosaccharide fragments to be tested or both products simultaneously (FGF+product to be tested).
The culture is maintained for a further 24 hours and tritiated thymidine is added 4 hours before the end of the experiment.
The radioactivity incorporated is then counted; each measurement is made in triplicate.
Background: Uptake of a labelled nucleoside into DNA is a usual measure of proliferation.

Take FGFa: acidic FGF (FGFa): the “ED 50 of FGFa (50% of maximal proliferation)” value in assay [1] (FGFa in the absence of oligosaccharides, 10% FCS) was “about 7 ng/ml”. In assay [1] (FGFa without oligosaccharides, versus 10% FCS alone), the “maximal increase of the number of cells” value came out at 230%.

B1: anionic FGF: anionic FGF prepared from beef brain according to Lobb and Fett (protein, UniProt P03968 16-155, looked up)
Fibroblast growth factor 1: FNLPLGNYKKPKLLYCSNGGYFLRILPDGTVDGTKDRSDQHIQLQLCAESIGEVYIKSTETGQFLAMDTDGLLYGSQTPNEECLFLERLEENHYNTYISKKHAEKHWFVGLKKNGRSKLGPRTHFGQKAILFLPLPVSSD
As to B1, the “dose giving plateau of stimulation” value in assay [2] (anionic FGF alone (FIG. 10)) was found to be 5 ng/mL. Further, in assay [2] (anionic FGF alone, 5 ng/ml (FIG. 10)), the “plateau of thymidine incorporation after stimulation” value is 126,000 cpm.

For the origin of these results see US5034520A, “Process for recovering heparinic oligosaccharides with an affinity for cell growth factors” (Sanofi, priority 1986, dated 1991).
